Measured values as given in patent publication US20260055117A1, “SUBSTITUTED PYRIDONE GPR84 ANTAGONISTS AND USES THEREOF” (Liminal BioSciences Limited, priority 2022, published 2026).

Molecular target: T1, human GPR84 receptor (Homo sapiens, UniProt Q9NQS5)
T1 construct: host or cells: HEK293, transiently transfected
Test: Gαi biosensor BRET assay (GPR84 antagonism vs agonist ZQ-16)
Format: cell-based
Conditions: HEK293 cells, 200 nmol/L agonist ZQ-16; for IC50: Gαi biosensor BRET assay; for inhibition at 2 µM: tested at 2 μM (concentration code A); for inhibition at 10 µM: tested at 10 μM (concentration code D)
From the text: Background—The following assays can be used for determination of GPR84 activation in living HEK293 cells. The Gai BRET biosensor (Gagnon et al., 2018; Gales et al., 2006. Nat Struct Mol Biol. 13, 778-86; Saulieres et al., 2012. Nat Chem Biol. 8, 622-30) allows to directly monitor GPR84-mediated activation of Gai. The Gai biosensor consists of a Rluc8-tagged Gai2 subunit, a GFP10-tagged Gy2 subunit, and an untagged GB1. Agonist stimulation and GPR84 activation triggers a physical separation between the RLuc8-Gai donor and the GFP10-Gy2 acceptor, resulting in a decrease in BRET signal whose amplitude is correlated to ligand efficacy (Gales et al., 2006). Moreover, signaling functions of GPCRs are tightly regulated by endocytosis, the targeting of receptors to endosomes and their sorting to lysosomes or recycling to the plasma membrane. The early endosomes (EEs) trafficking assay (Namkung et al., 2016. Nat Commun. 7, 12178) uses Rluc8-tagged GPR84 and Renilla GFP (rGFP) attached to the FYVE domain from human endofin/zinc finger FYVE domain-containing protein 16, which binds phosphatidylinositol 3-phosphate in EEs. Agonist stimulation of GPR84-Rluc8 leads to trafficking of the receptor to EEs, and ensuing increase of the donor concentration relative to the rGFP-FYVE acceptor anchored in the same cellular compartment, and thus results in an increase in BRET signal.
Plasmids—The cDNA clones for human GPR84 receptor, human Gai2, GB1, and Gy2 were obtained from the cDNA Resource Center (www.cdna.org). GFP10 (F64L, S147P, S202F and H231L variant of Aequorea victoria Green Fluorescent Protein) gBlocks gene fragments (Integrated DNA Technologies, IA) and linker were inserted in frame at the N-terminus of human Gy2. Rluc8 (A55T, C124A, S130A, K136R, A143M, M185V, M253L, and S287L variant of the Renilla reniformis luciferase) gBlocks gene fragment was inserted with linkers in frame in between residues 91 and 92 of Gai2 or at the C-terminus of GPR84. The FYVE domain from human endofin (residues Q739 to K806) attached in frame at the C terminus of a humanized Renilla GFP (rGFP), were synthesized as gBlocks gene fragments.
Bioluminescence Resonance Energy Transfer (BRET) Measurement-HEK293 cells were transfected with GPR84-Rluc8 and rGFP-FYVE for the EEs trafficking biosensor or with GPR84, Gai2-Rluc8, GFP10-Gy2, and GB1 for the Ga; biosensor. The following day, transiently transfected cells were seeded in 96-well white clear bottom microplates coated with poly-D-lysine and left in culture for 24 hours. Cells were washed once with Tyrode's buffer (140 mmol/L NaCl, 1 mmol/L CaCl2), 2.7 mmol/L KCl, 0.49 mmol/L MgCl2, 0.37 mmol/L NaH2PO4, 5.6 mmol/L glucose, 12 mmol/L NaHCO3, and 25 mmol/L HEPES, pH 7.5) before performing assays in Tyrode's buffer. Test compounds were incubated with cells for 5 (Gai) or 15 (EEs) minutes at 37° C. before addition of 200 nmol/L of the GPR84 agonist ZQ-16 (2-(Hexylthio)-6-hydroxy-4 (3H)-pyrimidinone) for 5 minutes at room temperature (Gai) or 30 minutes at 37° C. (EEs). The Rluc8 substrate coelenterazine 400A (Prolume, Lakeside, A Z) was added at a final concentration of 5 μmol/L and BRET readings were collected using an Infinite M1000 microplate reader (Tecan, Morrisville, N C). BRET2 readings between Rluc8 and GFP10 or rGFP were collected by sequential integration of the signals detected in the 370 to 450 nm (Rluc8) and 510 to 540 nm (GFP10, rGFP) windows. The BRET signal was calculated as the ratio of light emitted by acceptor (GFP10, rGFP) over the light emitted by donor (Rluc8). The values were corrected to net BRET by subtracting the background BRET signal obtained in cells transfected with Rluc8 constructs alone. Ligand-promoted net BRET values were calculated by subtracting vehicle-induced net BRET from ligand-induced net BRET.

T1 sequence (Q9NQS5 whole entry): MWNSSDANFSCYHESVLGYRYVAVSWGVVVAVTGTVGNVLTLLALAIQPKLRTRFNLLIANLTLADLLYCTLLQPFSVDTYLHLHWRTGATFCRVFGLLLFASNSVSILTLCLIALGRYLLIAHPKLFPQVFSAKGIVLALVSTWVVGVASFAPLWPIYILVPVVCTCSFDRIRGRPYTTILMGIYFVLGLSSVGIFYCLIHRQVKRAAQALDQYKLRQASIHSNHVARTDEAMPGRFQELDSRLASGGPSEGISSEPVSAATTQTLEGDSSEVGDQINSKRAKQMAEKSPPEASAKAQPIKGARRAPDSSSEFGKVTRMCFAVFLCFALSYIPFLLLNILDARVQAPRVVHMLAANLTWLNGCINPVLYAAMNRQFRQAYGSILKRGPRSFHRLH

Row | Structure (SMILES) | IC50 [nM] | inhibition at 2 µM [%] | inhibition at 5.4 µM (tested at 5.4 μM (concentration code C)) [%] | inhibition at 10 µM [%]
1 | Cc1cc(OCC(=O)N2CC[C@H](C#N)C2)cc(=O)n1[C@H](C)c1ccc(C#CC2CC2)cc1 [Compound I-310] | ≤ 300 | > 75 | – | –
2 | C#Cc1ccc([C@@H](C)n2c(C)cc(OCC(=O)N(C)C)cc2=O)cc1 [Compound I-295] | – | – | > 75 | –
3 | Cc1cc(OCC(=O)N2CC(F)C2)cc(=O)n1[C@H](C)c1ccc(C#CC2CC2)cc1 [Compound I-288] | 300 to 1000 | > 75 | – | –
4 | COc1cc(C(C)n2c(C)cc(OCC(=O)N(C)C)cc2=O)ccn1 (stereo not drawn) [Compound I-230] | – | – | – | < 25
5 | Cc1cc(OCC(=O)N2CCC(C)(C)C2)cc(=O)n1[C@H](C)c1ccc(C#CC2CC2)cc1 [Compound I-256] | – | > 75 | – | –
6 | Cc1cc(OCC(=O)N2CC(O)C2)cc(=O)n1[C@H](C)c1ccc(C#CC2CC2)cc1 [Compound I-293] | ≤ 300 | > 75 | – | –
7 | Cc1cc(OCc2ncnn2C)cc(=O)n1[C@H](C)c1ccc(C#CC2CC2)cc1 [Compound I-329] | ≤ 300 | > 75 | – | –
8 | Cc1cc(OCC(=O)N2CCCCC2)cc(=O)n1[C@H](C)c1ccc(C#CC2CC2)cc1 [Compound I-341] | ≤ 300 | > 75 | – | –
9 | Cc1cc(OCC(=O)C(C)C)cc(=O)n1[C@H](C)c1ccc(C#CC2CC2)cc1 [Compound I-270] | ≤ 300 | > 75 | – | –
10 | Cc1cc(OCC(=O)N2CC[C@@H](NS(C)(=O)=O)C2)cc(=O)n1[C@H](C)c1ccc(C#CC2CC2)cc1 [Compound I-336] | – | > 75 | – | –
11 | COc1cncnc1COc1cc(C)n([C@H](C)c2ccc(C#CC3CC3)cc2)c(=O)c1 [Compound I-4] | – | – | – | > 75
12 | Cc1nc(OCC(=O)N(C)C2COC2)cc(=O)n1[C@H](C)c1ccc(C#CC2CC2)cc1 [Compound I-68] | ≤ 300 | – | – | > 75
13 | Cc1nc(OCC(=O)N2CCC[C@H]2C(=O)O)cc(=O)n1[C@H](C)c1ccc(C#CC2CC2)cc1 [Compound I-297] | – | – | – | > 75
14 | Cc1cc(OCc2ncccn2)cc(=O)n1[C@H](C)c1ccc(C#CC#CC2CC2)cc1 [Compound I-75] | – | – | – | < 25
15 | Cc1cc(OCC2(N(C)C)COC2)cc(=O)n1[C@H](C)c1ccc(C#CC2CC2)cc1 [Compound I-36] | – | – | – | > 75
16 | Cc1cc(OCC(=O)N(C)C)cc(=O)n1[C@H](C)c1ccc(C(=O)O)cc1 [Compound I-265] | – | – | – | < 25
17 | Cc1cc(OCc2nnn[nH]2)cc(=O)n1[C@H](C)c1ccc(C#CC2CC2)cc1 [Compound I-259] | ≤ 300 | > 75 | – | –
18 | Cc1nc(OCC(=O)N2CC[C@@H](C(=O)O)C2)cc(=O)n1[C@H](C)c1ccc(C#CC2CC2)cc1 [Compound I-298] | – | – | – | > 75
19 | Cc1cc(OCC(=O)N2CCC[C@@H]2C(=O)O)cc(=O)n1[C@H](C)c1ccc(C#CC2CC2)cc1 [Compound I-246] | 300 to 1000 | – | – | > 75
20 | Cc1cc(OCC(=O)N2CC(CO)C2)cc(=O)n1[C@H](C)c1ccc(C#CC2CC2)cc1 [Compound I-291] | ≤ 300 | > 75 | – | –
21 | Cc1cc(OCC(=O)N2CCNCC2)cc(=O)n1[C@H](C)c1ccc(C#CC2CC2)cc1 [Compound I-61] | – | – | – | > 75
22 | Cc1cc(OCC(=O)N2CC[C@H](S(C)(=O)=O)C2)cc(=O)n1[C@H](C)c1ccc(C#CC2CC2)cc1 [Compound I-253] | – | – | – | > 75

Row | Structure (SMILES) | IC50 [nM] | inhibition at 2 µM [%] | inhibition at 5.4 µM (tested at 5.4 μM (concentration code C)) [%] | inhibition at 10 µM [%]
23 | Cc1cc(OCC(=O)N(C)C2CC(F)(F)C2)cc(=O)n1[C@H](C)c1ccc(C#CC2CC2)cc1 [Compound I-67] | 300 to 1000 | – | – | > 75
24 | Cc1cc(OCC(=O)N2CCCC23CC3)cc(=O)n1[C@H](C)c1ccc(C#CC2CC2)cc1 [Compound I-320] | ≤ 300 | – | – | > 75
25 | Cc1nc(OCC(=O)N2CCCC2)cc(=O)n1[C@H](C)c1ccc(C#CC2CC2)cc1 [Compound I-235] | ≤ 300 | > 75 | – | –
26 | Cc1cc(OCC(=O)N2CCC2)cc(=O)n1[C@H](C)c1ccc(C#CC2CC2)c(F)c1 [Compound I-23] | ≤ 300 | > 75 | – | –
27 | CCCCc1ccc(C(C)n2c(C)cc(OCc3ncccn3)cc2=O)cc1 (stereo not drawn) [Compound I-5, 1-(1-(4-butylphenyl)ethyl)-6-methyl-4-(pyrimidin-2-ylmethoxy)pyridin-2 (1H)-one] | – | – | – | < 25
28 | Cc1cc(OCC(=O)N(C)C)cc(=O)n1[C@H](C)c1ccc(C#CC2CC2(F)F)c(F)c1 (single isomer, unassigned) [Compound I-83] | ≤ 300 | > 75 | – | –
29 | Cc1cc(OCc2ncccc2C(F)(F)F)cc(=O)n1[C@H](C)c1ccc(C#CC2CC2)cc1 [Compound I-71] | 300 to 1000 | – | – | > 75
30 | CCC#Cc1ccc([C@@H](C)n2c(C)cc(OCC(=O)N(C)C)cc2=O)cc1 [Compound I-28] | ≤ 300 | – | – | > 75
31 | COC1CN(C(=O)COc2cc(C)n([C@H](C)c3ccc(C#CC4CC4)cc3)c(=O)c2)C1 [Compound I-294] | ≤ 300 | > 75 | – | –
32 | Cc1cc(OCC(=O)N(C)C2CCOCC2)cc(=O)n1[C@H](C)c1ccc(C#CC2CC2)cc1 [Compound I-57] | ≤ 300 | > 75 | – | –
33 | Cc1cc(OCC(=O)NC(C)C)cc(=O)n1[C@H](C)c1ccc(C#CC2CC2)cc1 [Compound I-54] | – | – | – | > 75
34 | Cc1cc(OCC(=O)N2CC[C@@H](S(=O)(=O)N(C)C)C2)cc(=O)n1[C@H](C)c1ccc(C#CC2CC2)cc1 [Compound I-334] | 300 to 1000 | > 75 | – | –
35 | Cc1cc(OCC(=O)C(C)(C)C)cc(=O)n1[C@H](C)c1ccc(C#CC2CC2)cc1 [Compound I-272] | 300 to 1000 | > 75 | – | –
36 | Cc1nnc(COc2cc(C)n([C@H](C)c3ccc(C#CC4CC4)c(F)c3)c(=O)c2)o1 [Compound I-17] | ≤ 300 | > 75 | – | –
37 | Cc1cc(OCS(N)(=O)=O)cc(=O)n1[C@H](C)c1ccc(C#CC2CC2)c(F)c1 [Compound I-46] | – | – | – | > 75
38 | Cc1cc(OCC(=O)N2C3CCC2COC3)cc(=O)n1[C@H](C)c1ccc(C#CC2CC2)cc1 [Compound I-324] | ≤ 300 | > 75 | – | –
39 | Cc1cc(OCC(=O)N(C)C)cc(=O)n1[C@H](C)c1ccc(C#CCC2CC2)cc1 [Compound I-32] | ≤ 300 | > 75 | – | –
40 | Cc1cc(OCC2(N(C)C)COC2)cc(=O)n1[C@H](C)c1ccc(C#CC2CC2)c(F)c1 [Compound I-19] | – | – | – | 50 to 75
41 | Cc1cc(OCC(=O)N2CCC(F)(F)CC2)cc(=O)n1[C@H](C)c1ccc(C#CC2CC2)cc1 [Compound I-8] | – | – | – | > 75
42 | Cc1cc(OCC(=O)N2CC(C)OC(C)C2)cc(=O)n1[C@H](C)c1ccc(C#CC2CC2)cc1 (stereo partly drawn) [Compound I-348] | – | – | – | > 75
43 | Cc1cc(OCC(=O)N(C)C)cc(=O)n1[C@H](C)c1ccc(C#CC2CC2)cc1Br [Compound I-87] | – | – | – | 50 to 75
44 | Cc1cc(OCC(=O)N2CCC[C@H]2C(F)(F)F)cc(=O)n1[C@H](C)c1ccc(C#CC2CC2)cc1 [Compound I-255] | 300 to 1000 | > 75 | – | –
